Reference: PubChem BioAssay (NCI)
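These data come from cells grown in 96-well plates and exposed to compound for 48 hours at five concentrations. TGI denotes the concentration required for complete inhibition of growth.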

Columns and labels:
Test in all cases: NCI anticancer screen, dose series, 48 h
SW-620 colon = test system: SW-620 colon
T-47D breast = test system: T-47D breast
HCT-116 colon = test system: HCT-116 colon
NCI/ADR-RES ovarian = test system: NCI/ADR-RES ovarian
OVCAR-8 ovarian = test system: OVCAR-8 ovarian
MDA-N = test system: MDA-N
786-0 renal = test system: 786-0 renal
EKVX NSCLC = test system: EKVX NSCLC
DU-145 prostate = test system: DU-145 prostate
RPMI-8226 leukemia = test system: RPMI-8226 leukemia
OVCAR-3 ovarian = test system: OVCAR-3 ovarian
UACC-62 melanoma = test system: UACC-62 melanoma
HT29 colon = test system: HT29 colon
TK-10 renal = test system: TK-10 renal
K-562 leukemia = test system: K-562 leukemia
COLO 205 colon = test system: COLO 205 colon
M14 melanoma = test system: M14 melanoma
HCC-2998 colon = test system: HCC-2998 colon
U251 CNS = test system: U251 CNS
LOX IMVI melanoma = test system: LOX IMVI melanoma
HCT-15 colon = test system: HCT-15 colon
HS 578T breast = test system: HS 578T breast
HOP-62 NSCLC = test system: HOP-62 NSCLC
SF-268 CNS = test system: SF-268 CNS
MDA-MB-231 breast = test system: MDA-MB-231 breast
UACC-257 melanoma = test system: UACC-257 melanoma
NCI-H23 lung = test system: NCI-H23 lung
MCF7 breast = test system: MCF7 breast
BT-549 breast = test system: BT-549 breast
PC-3 prostate = test system: PC-3 prostate
MDA-MB-435 = test system: MDA-MB-435
SNB-75 CNS = test system: SNB-75 CNS
SK-MEL-5 melanoma = test system: SK-MEL-5 melanoma
SK-OV-3 ovarian = test system: SK-OV-3 ovarian
IGROV1 ovarian = test system: IGROV1 ovarian
OVCAR-4 ovarian = test system: OVCAR-4 ovarian
SN12C renal = test system: SN12C renal
NCI-H460 lung = test system: NCI-H460 lung
KM12 colon = test system: KM12 colon
SF-295 CNS = test system: SF-295 CNS
NCI-H226 lung = test system: NCI-H226 lung
ACHN renal = test system: ACHN renal
SF-539 CNS = test system: SF-539 CNS
SK-MEL-28 melanoma = test system: SK-MEL-28 melanoma
UO-31 renal = test system: UO-31 renal
SK-MEL-2 melanoma = test system: SK-MEL-2 melanoma
SR leukemia = test system: SR leukemia
SNB-19 CNS = test system: SNB-19 CNS
MOLT-4 leukemia = test system: MOLT-4 leukemia
MALME-3M melanoma = test system: MALME-3M melanoma
A549 NSCLC = test system: A549 NSCLC
OVCAR-5 ovarian = test system: OVCAR-5 ovarian

For `CC12c3c4cc(Br)cc3Oc3cc(Br)cc(c31)Oc1cc(Br)cc(c12)O4`, the TGI (SW-620 colon) was > 100 µM, the TGI (T-47D breast) was > 100 µM and the TGI (HCT-116 colon) was > 100 µM. For the same compound, the TGI (NCI/ADR-RES ovarian) was 58.5 µM, the TGI (OVCAR-8 ovarian) was > 100 µM and the TGI (MDA-N) was > 100 µM. It also gave a TGI (786-0 renal) of 44.4 µM, a TGI (EKVX NSCLC) of 82.6 µM and a TGI (DU-145 prostate) of 49.1 µM. For the same compound, the TGI (RPMI-8226 leukemia) was > 100 µM, the TGI (OVCAR-3 ovarian) was 28.2 µM and the TGI (UACC-62 melanoma) was > 100 µM. For the same compound, the TGI (HT29 colon) was > 100 µM, the TGI (TK-10 renal) was > 100 µM and the TGI (K-562 leukemia) was > 100 µM. For the same compound, the TGI (COLO 205 colon) was > 100 µM, the TGI (M14 melanoma) was > 100 µM and the TGI (HCC-2998 colon) was > 100 µM. The TGI (U251 CNS) was > 100 µM, the TGI (LOX IMVI melanoma) was 51.1 µM and the TGI (HCT-15 colon) was > 100 µM. For the same compound, the TGI (HS 578T breast) was > 100 µM, the TGI (HOP-62 NSCLC) was > 100 µM and the TGI (SF-268 CNS) was 28.2 µM. The TGI (MDA-MB-231 breast) was 59.3 µM, the TGI (UACC-257 melanoma) was > 100 µM and the TGI (NCI-H23 lung) was > 100 µM. For the same compound, the TGI (MCF7 breast) was > 100 µM, the TGI (BT-549 breast) was 52.7 µM and the TGI (PC-3 prostate) was 55.3 µM. For the same compound, the TGI (MDA-MB-435) was > 100 µM, the TGI (SNB-75 CNS) was 31.3 µM and the TGI (SK-MEL-5 melanoma) was 84.5 µM. The TGI (SK-OV-3 ovarian) was > 100 µM, the TGI (IGROV1 ovarian) was 86.6 µM and the TGI (OVCAR-4 ovarian) was > 100 µM. For the same compound, the TGI (SN12C renal) was 83.4 µM, the TGI (NCI-H460 lung) was > 100 µM and the TGI (KM12 colon) was > 100 µM. For the same compound, the TGI (SF-295 CNS) was > 100 µM, the TGI (NCI-H226 lung) was 41.3 µM and the TGI (ACHN renal) was > 100 µM. For the same compound, the TGI (SF-539 CNS) was > 100 µM, the TGI (SK-MEL-28 melanoma) was > 100 µM and the TGI (UO-31 renal) was > 100 µM. For the same compound, the TGI (SK-MEL-2 melanoma) was 67.8 µM, the TGI (SR leukemia) was > 100 µM and the TGI (SNB-19 CNS) was > 100 µM. For the same compound, the TGI (MOLT-4 leukemia) was > 100 µM, the TGI (MALME-3M melanoma) was 37.5 µM and the TGI (A549 NSCLC) was > 100 µM. For the same compound, the TGI (OVCAR-5 ovarian) was > 100 µM.
